Where a name gives a salt, the structure may show the parent alone.
biological target: Full length human CDC7 protein co-expressed with DBF4 (Homo sapiens (Human), UniProt O00311); assay: CDC7 kinase biochemical assay (ADP-Glo, PDKtide substrate); details: 0.1 nM CDC7/DBF4, 1 uM ATP, 10 uM PDKtide, 4 h
Description: CDC7 Kinase Biochemical Assay Protocol:
Full length human CDC7 protein co-expressed with DBF4 was purchased from SignalChem (China). CDC7 kinase activity was determined with PDKtide (SignalChem) as a substrate and by measuring ADP production using the ADP-Glo™ Kinase Assay kit (Promega) following the manufacturers instructions. The kinase reaction was performed using the following conditions: Buffer: 40 mM Tris pH 7.5, 20 mM MgCl2, 0.1 mg/ml BSA and 50 uM DTT. Final reaction mix contained 0.1 nM CDC7/DBF4, 1 uM ATP and 10 uM PDKtide. The kinase reaction time was 4 h. The ADP-Glo signal was measured using an EnVision plate reader (PerkinELmer).
Percent inhibition of CDC7 kinase activity was calculated based on the following formula:
[formula] • Ssample: the signal of compounds • SHigh Ctrl: the signal of high control (DMSO) • SLow Ctrl: the signal of low control (positive control CDC7 inhibitor)

Full length human CDC7 protein co-expressed with DBF4, sequence (O00311 whole entry): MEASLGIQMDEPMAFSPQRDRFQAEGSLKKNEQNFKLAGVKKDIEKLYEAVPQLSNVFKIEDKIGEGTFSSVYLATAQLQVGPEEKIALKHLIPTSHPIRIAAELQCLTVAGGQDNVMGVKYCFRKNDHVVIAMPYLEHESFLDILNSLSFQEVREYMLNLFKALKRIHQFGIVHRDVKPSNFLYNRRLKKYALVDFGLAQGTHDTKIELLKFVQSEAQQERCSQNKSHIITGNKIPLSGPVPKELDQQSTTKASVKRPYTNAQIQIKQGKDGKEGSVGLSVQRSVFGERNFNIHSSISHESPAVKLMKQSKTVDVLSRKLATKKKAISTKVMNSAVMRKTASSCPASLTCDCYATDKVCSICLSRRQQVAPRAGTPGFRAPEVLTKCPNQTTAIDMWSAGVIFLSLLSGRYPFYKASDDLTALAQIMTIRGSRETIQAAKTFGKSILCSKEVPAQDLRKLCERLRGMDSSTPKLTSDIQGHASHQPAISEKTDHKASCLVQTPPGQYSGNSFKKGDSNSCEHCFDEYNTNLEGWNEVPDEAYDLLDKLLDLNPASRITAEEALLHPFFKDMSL
Full length human CDC7 protein co-expressed with DBF4, sequence (Q9UBU7 whole entry partner): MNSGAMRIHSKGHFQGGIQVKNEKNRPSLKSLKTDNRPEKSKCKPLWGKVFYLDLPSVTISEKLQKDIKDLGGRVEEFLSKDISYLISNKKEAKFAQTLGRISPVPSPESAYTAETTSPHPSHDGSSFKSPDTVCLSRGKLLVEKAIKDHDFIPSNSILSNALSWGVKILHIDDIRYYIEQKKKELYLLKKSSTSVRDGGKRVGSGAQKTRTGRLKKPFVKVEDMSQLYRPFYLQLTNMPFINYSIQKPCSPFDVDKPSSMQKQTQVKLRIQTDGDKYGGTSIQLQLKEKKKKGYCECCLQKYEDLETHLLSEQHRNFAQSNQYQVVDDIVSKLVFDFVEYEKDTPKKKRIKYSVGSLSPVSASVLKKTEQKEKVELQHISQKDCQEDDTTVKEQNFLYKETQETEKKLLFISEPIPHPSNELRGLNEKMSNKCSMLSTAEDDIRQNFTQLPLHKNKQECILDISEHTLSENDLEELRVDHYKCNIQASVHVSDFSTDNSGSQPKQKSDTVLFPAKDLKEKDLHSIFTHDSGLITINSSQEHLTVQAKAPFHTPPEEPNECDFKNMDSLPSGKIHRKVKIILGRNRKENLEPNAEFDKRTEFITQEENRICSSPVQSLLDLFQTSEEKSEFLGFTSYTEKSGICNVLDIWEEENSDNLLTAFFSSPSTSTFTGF

| Compound | IC50 |
| --- | --- |
| CC(c1[nH]c(=O)c2sc(-c3cn[nH]c3)c3c2c1CCCO3)n1nccn1 (racemic) [Example 48, 2-(1H-pyrazol-4-yl)-7-[1-(triazol-2-yl)ethyl]-12-oxa-3-thia-6-azatricyclo[6.4.1.0^4,13] trideca-1,4(13),7-trien-5-one] | < 1 nM |
| COC[C@H](OC)c1[nH]c(=O)c2sc(-c3cn[nH]c3)c3c2c1CCCO3 (single isomer, unassigned) [Example 40] | < 1 nM |
| O=c1[nH]c(CN2CCC(F)(F)C2)c2c3c(c(-c4cn[nH]c4)sc13)OCCC2 [Example 25, 7-[(3,3-difluoropyrrolidin-1-yl)methyl]-2-(1H-pyrazol-4-yl)-12-oxa-13-thia-6-azatricyclo[6.4.1.0^4,13]trideca-1,4(13),7-trien-5-one] | < 1 nM |
| COC[C@@H](c1[nH]c(=O)c2sc(-c3cn[nH]c3)c3c2c1CCCO3)N1CCC(F)(F)C1 (single isomer, unassigned) [Example 38] | 1 to 10 nM |
| C[C@@H](O)c1[nH]c(=O)c2sc(-c3cn[nH]c3)c3c2c1CCCO3 (single isomer, unassigned) [Example 33] | < 1 nM |
| Cc1[nH]c(=O)c2sc(-c3ccncc3)c3c2c1CCO3 [Example 2, 6-methyl-2-(pyridin-4-yl)-5,7-dihydro-3-oxa-1-thia-7-azaacenaphthylen-8(4H)-one] | < 1 nM |
| CC(C)(C)OC(=O)NCc1[nH]c(=O)c2sc(-c3ccncc3)c3c2c1CCCO3 [Example 14, tert-butyl ((3-oxo-1-(pyridin-4-yl)-4,6,7,8-tetrahydro-3H-9-oxa-2-thia-4-azabenzo[cd]azulen-5-yl)methyl)carbamate] | 1 to 10 nM |
| CC(=O)N(C)c1[nH]c(=O)c2sc(-c3cn[nH]c3)c3c2c1CCCO3 [Example 56, N-methyl-N-(3-oxo-1-(1H-pyrazol-4-yl)-4,6,7,8-tetrahydro-3H-9-oxa-2-thia-4-azabenzo[cd]azulen-5-yl)acetamide] | < 1 nM |
| COC[C@@H](c1[nH]c(=O)c2sc(-c3cn[nH]c3)c3c2c1CCCO3)n1cccn1 (single isomer, unassigned) [Example 36] | < 1 nM |
| O=c1[nH]c(Cn2cccn2)c2c3c(c(-c4ccncn4)sc13)OCCC2 [Example 19, 7-(pyrazol-1-ylmethyl)-2-pyrimidin-4-yl-12-oxa-3-thia-6-azatricyclo[6.4.1.0^4,13]trideca-1,4(13),7-trien-5-one] | < 1 nM |
| COc1ccc(CNCc2[nH]c(=O)c3sc(-c4ccncc4)c4c3c2CCCO4)cc1 [Example 16, 5-(((4-methoxybenzyl)amino)methyl)-1-(pyridin-4-yl)-4,6,7,8-tetrahydro-3H-9-oxa-2-thia-4-azabenzo[cd]azulen-3-one] | ≥ 10 nM |
| C[C@](O)(c1[nH]c(=O)c2sc(-c3cn[nH]c3)c3c2c1CCCO3)C1CC1 (single isomer, unassigned) [Example 60] | < 1 nM |
| C[C@@](O)(c1[nH]c(=O)c2sc(-c3cn[nH]c3)c3c2c1CCCO3)C1CC1 (single isomer, unassigned) [Example 59] | < 1 nM |
| O=C(c1[nH]c(=O)c2sc(-c3cn[nH]c3)c3c2c1CCCO3)N1CCOCC1 [Example 52, 7-(morpholine-4-carbonyl)-2-(1H-pyrazol-4-yl)-12-oxa-3-thia-6-azatricyclo[6.4.1.0^4,13]-trideca-1,4(13),7-trien-5-one] | 1 to 10 nM |
| Cc1n[nH]cc1-c1sc2c(=O)[nH]c(C)c3c2c1OCC3 [Example 4, 6-methyl-2-(3-methyl-1H-pyrazol-4-yl)-5,7-dihydro-3-oxa-1-thia-7-azaacenaphthylen-8(4H)-one] | < 1 nM |
| O=c1[nH]c(Cn2ccnc2)c2c3c(c(-c4cn[nH]c4)sc13)OCCC2 [Example 22, 7-(imidazol-1-ylmethyl)-2-(1H-pyrazol-4-yl)-12-oxa-3-thia-6-azatricyclo[6.4.1.0^4,13]trideca-1,4(13),7-trien-5-one] | < 1 nM |
| NCc1[nH]c(=O)c2sc(-c3ccncc3)c3c2c1CCCO3 [Example 15, 5-(aminomethyl)-1-(pyridin-4-yl)-4,6,7,8-tetrahydro-3H-9-oxa-2-thia-4-azabenzo[cd]azulen-3-one;hydrochloride] | 1 to 10 nM |
| O=c1[nH]c(CN2CC[C@H](O)C2)c2c3c(c(-c4cn[nH]c4)sc13)OCCC2 [Example 11, (S)-5-((3-hydroxypyrrolidin-1-yl)methyl)-1-(1H-pyrazol-4-yl)-4,6,7,8-tetrahydro-3H-9-oxa-2-thia-4-azabenzo[cd]azulen-3-one] | < 1 nM |
| O=c1[nH]c(Cn2cccn2)c2c3c(c(-c4ccncc4)sc13)OCCC2 [Example 21, 7-(pyrazol-1-ylmethyl)-2-(4-pyridyl)-12-oxa-3-thia-6-azatricyclo[6.4.1.0^4,13]trideca-1,4(13),7-trien-5-one] | < 1 nM |
| NCc1[nH]c(=O)c2sc(-c3cn[nH]c3)c3c2c1CCCO3 [Example 17, 7-(aminomethyl)-2-(1H-pyrazol-4-yl)-12-oxa-3-thia-6-azatricyclo[6.4.1.04,13]trideca-1,4(13),7-trien-5-one] | 1 to 10 nM |
| O=c1[nH]c(Cn2cccn2)c2c3c(c(-c4cn[nH]c4)sc13)OCCC2 [Example 18, 2-(1H-pyrazol-4-yl)-7-(pyrazol-1-ylmethyl)-12-oxa-3-thia-6-azatricyclo[6.4.1.04,13]trideca-1,4(13),7-trien-5-one] | < 1 nM |
| Cc1[nH]c(=O)c2sc(-c3cn[nH]c3)c3c2c1CC(F)(F)CO3 [Example 43, 10,10-difluoro-7-methyl-2-(1H-pyrazol-4-yl)-12-oxa-3-thia-6-azatricyclo[6.4.1.0^4,13]trideca-1,4(13),7-trien-5-one] | < 1 nM |

Second part, the molecule after the results:

| IC50 | Compound |
| --- | --- |
| < 1 nM | CC(C)(O)Cc1[nH]c(=O)c2sc(-c3cn[nH]c3)c3c2c1CCCO3 [Example 77, 5-(2-hydroxy-2-methylpropyl)-1-(1H-pyrazol-4-yl)-4,6,7,8-tetrahydro-3H-9-oxa-2-thia-4-azabenzo[cd]azulen-3-one] |
| < 1 nM | CC[C@@](C)(O)c1[nH]c(=O)c2sc(-c3ccncc3)c3c2c1CCCO3 (single isomer, unassigned) [Example 72] |
| < 1 nM | CC1Cc2c(CN3CC[C@H](F)C3)[nH]c(=O)c3sc(-c4cn[nH]c4)c(c23)O1 (stereo in doubt) [Example 69, (S)-6-(((S)-3-fluoropyrrolidin-1-yl)methyl)-4-methyl-2-(1H-pyrazol-4-yl)-5,7-dihydro-3-oxa-1-thia-7-azaacenaphthylen-8(4H)-one] |
| < 1 nM | C[C@@H]1Cc2c(CN3CCC(F)(F)C3)[nH]c(=O)c3sc(-c4cn[nH]c4)c(c23)O1 (single isomer, unassigned) [Example 65] |
| < 1 nM | O=c1[nH]c(C2(O)CCCC2)c2c3c(c(-c4cn[nH]c4)sc13)OCCC2 [Example 85, 5-(1-hydroxycyclopentyl)-1-(1H-pyrazol-4-yl)-4,6,7,8-tetrahydro-3H-9-oxa-2-thia-4-azabenzo[cd]azulen-3-one] |
| < 1 nM | C[C@@H]1CCN1Cc1[nH]c(=O)c2sc(-c3cn[nH]c3)c3c2c1C[C@H](C)O3 (single isomer, unassigned) [Example 84] |
| < 1 nM | C[C@@H]1Cc2c(CN3CC[C@H]3C)[nH]c(=O)c3sc(-c4cn[nH]c4)c(c23)O1 (single isomer, unassigned) [Example 81] |
| < 1 nM | CC[C@](C)(O)c1[nH]c(=O)c2sc(-c3ccncc3)c3c2c1CCCO3 (single isomer, unassigned) [Example 71] |
| < 1 nM | CC1Cc2c(CN3CC(F)C3)[nH]c(=O)c3sc(-c4cn[nH]c4)c(c23)O1 (stereo in doubt) [Example 68, (S)-6-((3-fluoroazetidin-1-yl)methyl)-4-methyl-2-(1H-pyrazol-4-yl)-5,7-dihydro-3-oxa-1-thia-7-azaacenaphthylen-8(4H)-one] |
| < 1 nM | CC1Cc2c(CN3CC(F)C3)[nH]c(=O)c3sc(-c4cn[nH]c4)c(c23)O1 (stereo in doubt) [Example 67, (R)-6-((3-fluoroazetidin-1-yl)methyl)-4-methyl-2-(1H-pyrazol-4-yl)-5,7-dihydro-3-oxa-1-thia-7-azaacenaphthylen-8(4H)-one] |
| < 1 nM | C[C@@H]1Cc2c(CN3CC[C@@H]3C)[nH]c(=O)c3sc(-c4cn[nH]c4)c(c23)O1 (single isomer, unassigned) [Example 82] |
| < 1 nM | C[C@@H]1Cc2c(C(C)(C)O)[nH]c(=O)c3sc(-c4cn[nH]c4)c(c23)O1 (single isomer, unassigned) [Example 62] |
| < 1 nM | C[C@H]1Cc2c(CN3CCC(F)(F)C3)[nH]c(=O)c3sc(-c4cn[nH]c4)c(c23)O1 (single isomer, unassigned) [Example 66] |
| < 1 nM | C[C@H]1Cc2c(CN3CCC3)[nH]c(=O)c3sc(-c4cn[nH]c4)c(c23)O1 (single isomer, unassigned) [Example 63] |
| < 1 nM | C[C@H]1Cc2c(CN3CC(O)C3)[nH]c(=O)c3sc(-c4cn[nH]c4)c(c23)O1 (single isomer, unassigned) [Example 79] |
| < 1 nM | O=c1[nH]c(CN2CC(O)C2)c2c3c(c(-c4cn[nH]c4)sc13)OCCC2 [Example 78, 7-[(3-hydroxyazetidin-1-yl)methyl]-2-(1H-pyrazol-4-yl)-12-oxa-3-thia-6-azatricyclo [6.4.1.0^4,13]trideca-1,4(13),7-trien-5-one] |
| ≥ 10 nM | CC[C@@](C)(O)c1[nH]c(=O)c2sc(-c3c[nH]nc3C)c3c2c1CCCO3 (single isomer, unassigned) [Example 74] |

From US20230365584A1, “HETEROCYCLIC PERICONDENSED CDC7 KINASE INHIBITORS FOR THE TREATMENT OF CANCER” (SCHRÖDINGER, INC., priority 2020, published 2023)
